Test results: ChEMBL document CHEMBL5131391, “One-pot three-component synthesis of novel pyrazolo[3,4-b]pyridines as potent antileukemic agents” (Eur J Med Chem, 2022)
pIC50: −log10 of the molar value. One block for each compound: values may come before it. Activity calls are given as the source filed them. No cut-off for these calls is given here.

How the values were obtained:
OVCAR-4 = test: Antiproliferative activity against human OVCAR-4 cells assessed as growth inhibition at 10 uM measured after 48 hrs by NCI protocol based SRB assay relative to control; assay type: functional; conditions: read-out: GI
786-0 = test: Antiproliferative activity against human 786-0 cells assessed as growth inhibition at 10 uM measured after 48 hrs by NCI protocol based SRB assay relative to control; assay type: functional; conditions: read-out: GI
SF-268 = test: Antiproliferative activity against human SF-268 cells assessed as growth inhibition at 10 uM measured after 48 hrs by NCI protocol based SRB assay relative to control; assay type: functional; conditions: read-out: GI
HOP-92 = test: Antiproliferative activity against human HOP-92 cells assessed as growth inhibition at 10 uM measured after 48 hrs by NCI protocol based SRB assay relative to control; assay type: functional; conditions: read-out: GI
MOLT-4 = test: Antiproliferative activity against human MOLT-4 cells assessed as growth inhibition at 10 uM measured after 48 hrs by NCI protocol based SRB assay relative to control; assay type: functional; conditions: read-out: GI
HCT-15 = test: Antiproliferative activity against human HCT-15 cells assessed as growth inhibition at 10 uM measured after 48 hrs by NCI protocol based SRB assay relative to control; assay type: functional; conditions: read-out: GI
MCF7 = test: Antiproliferative activity against human MCF7 cells assessed as growth inhibition at 10 uM measured after 48 hrs by NCI protocol based SRB assay relative to control; assay type: functional; conditions: read-out: GI
MDA-MB-468 = test: Antiproliferative activity against human MDA-MB-468 cells assessed as growth inhibition at 10 uM measured after 48 hrs by NCI protocol based SRB assay relative to control; assay type: functional; conditions: read-out: GI
ACHN = test: Antiproliferative activity against human ACHN cells assessed as growth inhibition at 10 uM measured after 48 hrs by NCI protocol based SRB assay relative to control; assay type: functional; conditions: read-out: GI
RPMI-8226 = test: Antiproliferative activity against human RPMI-8226 cells assessed as growth inhibition at 10 uM measured after 48 hrs by NCI protocol based SRB assay relative to control; assay type: functional; conditions: read-out: GI
A549 = test: Antiproliferative activity against human A549 cells assessed as growth inhibition at 10 uM measured after 48 hrs by NCI protocol based SRB assay relative to control; assay type: functional; conditions: read-out: GI
EKVX = test: Antiproliferative activity against human EKVX cells assessed as growth inhibition at 10 uM measured after 48 hrs by NCI protocol based SRB assay relative to control; assay type: functional; conditions: read-out: GI
SK-MEL-5 = test: Antiproliferative activity against human SK-MEL-5 cells assessed as growth inhibition at 10 uM measured after 48 hrs by NCI protocol based SRB assay relative to control; assay type: functional; conditions: read-out: GI
SK-OV-3 = test: Antiproliferative activity against human SK-OV-3 cells assessed as growth inhibition at 10 uM measured after 48 hrs by NCI protocol based SRB assay relative to control; assay type: functional; conditions: read-out: GI
K562 [1] = test: Antiproliferative activity against human K562 cells assessed as growth inhibition at 10 uM measured after 48 hrs by NCI protocol based SRB assay relative to control; assay type: functional; conditions: read-out: GI
SNB-19 = test: Antiproliferative activity against human SNB-19 cells assessed as growth inhibition at 10 uM measured after 48 hrs by NCI protocol based SRB assay relative to control; assay type: functional; conditions: read-out: GI
SF-539 = test: Antiproliferative activity against human SF-539 cells assessed as growth inhibition at 10 uM measured after 48 hrs by NCI protocol based SRB assay relative to control; assay type: functional; conditions: read-out: GI
SW-620 = test: Antiproliferative activity against human SW-620 cells assessed as growth inhibition at 10 uM measured after 48 hrs by NCI protocol based SRB assay relative to control; assay type: functional; conditions: read-out: GI
K562 [2] = test: Antiproliferative activity against human K562 cells assessed as reduction in cell viability incubated for 72 hrs by resazurin dye based assay; assay type: functional; conditions: K562, 72 h
KM12 = test: Antiproliferative activity against human KM12 cells assessed as growth inhibition at 10 uM measured after 48 hrs by NCI protocol based SRB assay relative to control; assay type: functional; conditions: read-out: GI
SN12C = test: Antiproliferative activity against human SN12C cells assessed as growth inhibition at 10 uM measured after 48 hrs by NCI protocol based SRB assay relative to control; assay type: functional; conditions: read-out: GI
UO-31 = test: Antiproliferative activity against human UO-31 cells assessed as growth inhibition at 10 uM measured after 48 hrs by NCI protocol based SRB assay relative to control; assay type: functional; conditions: read-out: GI
U-251 = test: Antiproliferative activity against human U-251 cells assessed as growth inhibition at 10 uM measured after 48 hrs by NCI protocol based SRB assay relative to control; assay type: functional; conditions: read-out: GI
NCI-H226 = test: Antiproliferative activity against human NCI-H226 cells assessed as growth inhibition at 10 uM measured after 48 hrs by NCI protocol based SRB assay relative to control; assay type: functional; conditions: read-out: GI
NCI-H460 = test: Antiproliferative activity against human NCI-H460 cells assessed as growth inhibition at 10 uM measured after 48 hrs by NCI protocol based SRB assay relative to control; assay type: functional; conditions: read-out: GI
HT-29 = test: Antiproliferative activity against human HT-29 cells assessed as growth inhibition at 10 uM measured after 48 hrs by NCI protocol based SRB assay relative to control; assay type: functional; conditions: read-out: GI
OVCAR-8 = test: Antiproliferative activity against human OVCAR-8 cells assessed as growth inhibition at 10 uM measured after 48 hrs by NCI protocol based SRB assay relative to control; assay type: functional; conditions: read-out: GI
UACC-62 = test: Antiproliferative activity against human UACC-62 cells assessed as growth inhibition at 10 uM measured after 48 hrs by NCI protocol based SRB assay relative to control; assay type: functional; conditions: read-out: GI
CAKI-1 = test: Antiproliferative activity against human CAKI-1 cells assessed as growth inhibition at 10 uM measured after 48 hrs by NCI protocol based SRB assay relative to control; assay type: functional; conditions: read-out: GI
NCI/ADR-RES = test: Antiproliferative activity against human NCl/ADR-RES cells assessed as growth inhibition at 10 uM measured after 48 hrs by NCI protocol based SRB assay relative to control; assay type: functional; conditions: read-out: GI
SR = test: Antiproliferative activity against human SR cells assessed as growth inhibition at 10 uM measured after 48 hrs by NCI protocol based SRB assay relative to control; assay type: functional; conditions: read-out: GI
CCRF-CEM [3] = test: Antiproliferative activity against human CEM cells assessed as reduction in cell viability incubated for 72 hrs by resazurin dye based assay; assay type: functional
PC-3 = test: Antiproliferative activity against human PC-3 cells assessed as growth inhibition at 10 uM measured after 48 hrs by NCI protocol based SRB assay relative to control; assay type: functional; conditions: read-out: GI
SK-MEL-2 = test: Antiproliferative activity against human SK-MEL-2 cells assessed as growth inhibition at 10 uM measured after 48 hrs by NCI protocol based SRB assay relative to control; assay type: functional; conditions: read-out: GI
T47D = test: Antiproliferative activity against human T47D cells assessed as growth inhibition at 10 uM measured after 48 hrs by NCI protocol based SRB assay relative to control; assay type: functional; conditions: read-out: GI
SNB-75 = test: Antiproliferative activity against human SNB-75 cells assessed as growth inhibition at 10 uM measured after 48 hrs by NCI protocol based SRB assay relative to control; assay type: functional; conditions: read-out: GI
MDA-MB-435 = test: Antiproliferative activity against human MDA-MB-435 cells assessed as growth inhibition at 10 uM measured after 48 hrs by NCI protocol based SRB assay relative to control; assay type: functional; conditions: read-out: GI
NCI-H522 = test: Antiproliferative activity against human NCI-H522 cells assessed as growth inhibition at 10 uM measured after 48 hrs by NCI protocol based SRB assay relative to control; assay type: functional; conditions: read-out: GI
IGROV-1 = test: Antiproliferative activity against human IGROV-1 cells assessed as growth inhibition at 10 uM measured after 48 hrs by NCI protocol based SRB assay relative to control; assay type: functional; conditions: read-out: GI
CCRF-CEM [4] = test: Antiproliferative activity against human CCRF-CEM cells assessed as growth inhibition at 10 uM measured after 48 hrs by NCI protocol based SRB assay relative to control; assay type: functional; conditions: read-out: GI
UACC-257 = test: Antiproliferative activity against human UACC-257 cells assessed as growth inhibition at 10 uM measured after 48 hrs by NCI protocol based SRB assay relative to control; assay type: functional; conditions: read-out: GI
HCT-116 = test: Antiproliferative activity against human HCT-116 cells assessed as growth inhibition at 10 uM measured after 48 hrs by NCI protocol based SRB assay relative to control; assay type: functional; conditions: read-out: GI
MV4-11 = test: Antiproliferative activity against human MV4-11 cells assessed as reduction in cell viability incubated for 72 hrs by resazurin dye based assay; assay type: functional; conditions: MV4-11, 72 h
MDA-MB-231 = test: Antiproliferative activity against human MDA-MB-231 cells assessed as growth inhibition at 10 uM measured after 48 hrs by NCI protocol based SRB assay relative to control; assay type: functional; conditions: read-out: GI
KOPN-8 = test: Antiproliferative activity against human KOPN-8 cells assessed as reduction in cell viability incubated for 72 hrs by resazurin dye based assay; assay type: functional; conditions: KOPN-8, 72 h
ML-2 = test: Antiproliferative activity against human ML-2 cells assessed as reduction in cell viability incubated for 72 hrs by resazurin dye based assay; assay type: functional; conditions: ML-2, 72 h
RS4-11 [5] = test: Downregulation of HOXA9 protein expression in human RS4-11 cells at 5 to 20 uM measured after 24 hrs by Western blot analysis; assay type: functional, cell-based; conditions: dose 5-20 µM
RS4-11 [6] = test: Antiproliferative activity against human RS4-11 cells assessed as reduction in cell viability incubated for 72 hrs by resazurin dye based assay; assay type: functional; conditions: RS4-11, 72 h
RS4-11 [7] = test: Induction of cell cycle arrest in human RS4-11 cells assessed as accumulation of cells in G2/M phase at 1.25 to 10 uM measured after 72 hrs by PI staining based flow cytometry analysis; assay type: functional; conditions: dose 1.25-10 µM
RS4-11 [8] = test: Downregulation of MEIS1 protein expression in human RS4-11 cells at 5 to 20 uM measured after 24 hrs by Western blot analysis; assay type: functional, cell-based; conditions: dose 5-20 µM
RS4-11 [9] = test: Induction of cell cycle arrest in human RS4-11 cells assessed as accumulation of cells in subG1 phase at 1.25 to 10 uM measured after 72 hrs by PI staining based flow cytometry analysis; assay type: functional; conditions: dose 1.25-10 µM

- pIC50 (K562 [2]): 4.60
- pIC50 (CCRF-CEM [3]): 4.44
- pIC50 (MV4-11): 4.45
SMILES: COc1cc(-c2c(C#N)c(-c3ccco3)nc3c2c(-c2ccccc2)nn3-c2ccccc2)ccc1O
- inhibition of growth at 10 µM (OVCAR-4): 19%
- inhibition of growth at 10 µM (786-0): 26%
- inhibition of growth at 10 µM (SF-268): 25%
- inhibition of growth at 10 µM (HOP-92): 33%
- inhibition of growth at 10 µM (MOLT-4): 47%
- inhibition of growth at 10 µM (HCT-15): 28%
- inhibition of growth at 10 µM (MCF7): 34%
- inhibition of growth at 10 µM (MDA-MB-468): 14%
- inhibition of growth at 10 µM (ACHN): 12%
- inhibition of growth at 10 µM (RPMI-8226): 21%
- inhibition of growth at 10 µM (A549): 39%
- inhibition of growth at 10 µM (EKVX): 31%
- inhibition of growth at 10 µM (SK-MEL-5): 20%
- inhibition of growth at 10 µM (SK-OV-3): 15%
- inhibition of growth at 10 µM (K562 [1]): 32%
- inhibition of growth at 10 µM (SNB-19): 13%
- inhibition of growth at 10 µM (SF-539): 13%
- inhibition of growth at 10 µM (SW-620): 11%
- inhibition of growth at 10 µM (KM12): 15%
- inhibition of growth at 10 µM (SN12C): 18%
- inhibition of growth at 10 µM (UO-31): 27%
- inhibition of growth at 10 µM (U-251): 15%
- inhibition of growth at 10 µM (NCI-H226): 15%
- inhibition of growth at 10 µM (NCI-H460): 28%
- inhibition of growth at 10 µM (HT-29): 15%
- inhibition of growth at 10 µM (OVCAR-8): 15%
- inhibition of growth at 10 µM (UACC-62): 18%
- inhibition of growth at 10 µM (CAKI-1): 29%
- inhibition of growth at 10 µM (NCI/ADR-RES): 19%
- inhibition of growth at 10 µM (SR): 34%
- inhibition of growth at 10 µM (PC-3): 41%
- inhibition of growth at 10 µM (SK-MEL-2): 11%
- inhibition of growth at 10 µM (T47D): 34%
- inhibition of growth at 10 µM (SNB-75): 27%
- inhibition of growth at 10 µM (MDA-MB-435): 23%
- inhibition of growth at 10 µM (NCI-H522): 30%
- inhibition of growth at 10 µM (IGROV-1): 13%
- inhibition of growth at 10 µM (CCRF-CEM [4]): 25%
- inhibition of growth at 10 µM (UACC-257): 16%
- inhibition of growth at 10 µM (HCT-116): 43%
- inhibition of growth at 10 µM (MDA-MB-231): 17%

- pIC50 (K562 [2]): 5.70
- pIC50 (CCRF-CEM [3]): 4.62
- pIC50 (RS4-11 [6]): 5.34
- pIC50 (MV4-11): 5.29
SMILES: Cc1ccc(-c2nc3c(c(-c4ccccc4)nn3-c3ccccc3)c(-c3ccc4c(c3)OCO4)c2C#N)cc1
- pIC50 (KOPN-8): 6.15
- pIC50 (ML-2): 5.11
- Activity (RS4-11 [5]): Active
- Activity (RS4-11 [7]): Active
- Activity (RS4-11 [8]): Active
- Activity (RS4-11 [9]): Active
